“Also recorded” adds a separate entry of the source.
Experiments:
[1] = system: gerbils exposed to 10 minutes of ischemia; assay: Survival rate following 10 minutes of ischemia, postischemic ADAC; type: in vivo, gerbil
Experimental: In the three remaining treatment groups (i.e., 3, 6, and 12 hours) numerical improvement was apparent, but statistical significance of (P<0.05) was lost probably owing to the sample sizes. […] To prevent selection of overly robust animals into these groups, the data were not normalized to account for pre-treatment mortalities.

[2] = Open field locomotor activity in nonischemic gerbils; type: in vivo, gerbil; details: 0.1 mg/kg (100 μg/kg)
[3] = system: gerbils subjected to 10 minutes of ischemia; assay: Postischemic Morris water maze test (spatial memory); type: in vivo, gerbil
Experimental: The Morris water maze (Morris et al., supra) is now considered the most direct means of assessing post-ischemic memory and learning of spatially oriented tasks (Corbett et al., Neuroreport, 3, 204 (1992)). This test is well known in the art and the specific parameters of this test as used herein are defined below. Female gerbils (Tumblebrook Farms, Mass.) weighing 70 g were used in the study. Prior to inclusion in the experiments, animals were tested for susceptibility to spontaneous seizures using the method described by Lee et al., Neuropharmacol., 5, 517 (1984). Seizure-prone gerbils were rejected.
The details of the water maze are known in the art (von Lubitz et al., 1993 supra). Briefly, the system consists of a tank (1 m diameter) which is filled with opaque water to a depth of 30 cm. The tank contains a colorless target platform (15 cm diameter) submerged to a depth of 1.5 cm and placed in the center of the north-west quadrant. […]
(§1) Prior to subjecting the gerbils to 10 minutes of ischemia, the gerbils were randomly divided into the control and the drug testing groups. […] During post-ischemic recovery, animals were monitored each day for signs of functional damage (e.g., pareses) that might affect their subsequent water maze performance. Postischemic mortality was also monitored every day.

brain ischemia = assay: Comparison of effective neuroprotective concentrations with other A1 agonists; type: in vivo, gerbil; details: vs other A1 adenosine receptor agonists examined thus far
[4] = system: neurons of hippocampal CA1 region; assay: Neuronal survival 14 days after 10 minute ischemia, postischemic ADAC; type: in vivo, gerbil; details: control 25±3%
Experimental: At the end of the survival monitoring period (14 days), control and drug treated survivors were heavily anesthetized with Nembutal (60 mg/kg, intraperitoneally), and perfused with phosphate buffered (pH 7.4) 3.5% formaldehyde as described previously (Lin et al., Neurosci., 2, 289 (1990). The sections were stained with the method of Nissl, and the extent of the neuronal loss in the hippocampal region was investigated according to a standard procedure as disclosed in the art (von Lubitz et al., (1992) supra; 1994)supra.

[5] = biological target: Rat A2 adenosine receptor; assay: Affinity for A2 adenosine receptor isolated from rats; type: binding; details: rat A2 adenosine receptors; read-out: Ki for Rat A2 Receptors (printed K1)
Excerpt: Table 3 below indicates the structure and Ki values for these compounds. Thus, each of these compounds is expected to find utility in the context of the present invention. The five analogues indicated within Table 3 are given for the purposes of illustrating the nature of ADAC-analogues and is not meant to be comprehensive. Additionally, these compounds can be synthesized using a similar approach as the one employed for ADAC. These methods are known in the art. For example, the synthesis of these compounds can be guided by U.S. Pat. No. 5,248,770 or by Jacobson et al., Journal of Medicinal Chemistry, 28, 1341-1346 (1985).

[6] = system: gerbils subjected to 10 minutes of ischemia; assay: Open field locomotor activity 7 days after ischemia; type: in vivo, gerbil; details: preischemic ADAC, 10 minute period, control 235±3 cm, P<0.001
Experimental: as §1
Since locomotor hyperactivation may result in a spurious improvement of performance in the water maze (von Lubitz et al., 1993, supra), open field activity of all gerbils was assessed 7 days after the occlusion (i.e., one day prior to the water maze experiments). During locomotor testing, horizontal displacement of each gerbil was monitored in 2 minute epochs for 10 minutes using a Digiscan activity monitor (available from Omnitech Electronics, Colombus, Ohio).

[7] = 0.1 mg/kg ADAC 15 min post ischemia
[8] = 0.1 mg/kg ADAC 30 min post ischemia
[9] = 0.1 mg/kg ADAC 2 hour post ischemia
[10] = 0.1 mg/kg ADAC 3 hour post ischemia
[11] = 0.1 mg/kg ADAC 6 hour post ischemia
[12] = 0.1 mg/kg ADAC 12 hour post ischemia

SMILES: NCCNC(=O)Cc1ccc(NC(=O)Cc2ccc(Nc3ncnc4c3ncn4[C@@H]3O[C@H](CO)[C@@H](O)[C@H]3O)cc2)cc1 [ADAC]
- Survival Rate 24 h postischemia [1, 7]: 100%
- Survival Rate 14 days postischemia [1, 7]: 70%
- Survival Rate 24 h postischemia [1, 8]: 100%
- Survival Rate 14 days postischemia [1, 8]: 90%
- Survival Rate 24 h postischemia ([1]; 0.1 mg/kg ADAC 1 hour post ischemia): 80%
- Survival Rate 24 h postischemia [1, 9]: 80%
- Survival Rate 14 days postischemia [1, 9]: 80%
- Survival Rate 24 h postischemia [1, 10]: 60%
- Survival Rate 14 days postischemia [1, 10]: 50%
- Survival Rate 24 h postischemia [1, 11]: 50%
- Survival Rate 14 days postischemia [1, 11]: 50%
- Survival Rate 24 h postischemia [1, 12]: 60%
- Survival Rate 14 days postischemia [1, 12]: 50%
- behavioral changes by open field locomotor activity testing [2]: does not induce behavioral changes; also recorded: did not induce any behavioral changes
- preference for target quadrant in postischemic probe trial ([3]; FIG. 2, controls lost all preference): retained a high preference for the target quadrant
- recovery of postischemic water maze performance ([3]; preischemic ADAC, FIG. 1): regained water maze performance levels that mirrored the plateau level obtained in preischemic training almost immediately (trial 2, day 9)
- level of efficacy versus other A1 adenosine receptor agonists (brain ischemia): about an order of magnitude better
- CA1 neuronal preservation ([4]; ADAC at 0.5, 2 or 3 hours postischemia): ~ 75%
- CA1 neurons surviving ([4]; ADAC at 15 minutes, 6 or 12 hours postischemia): approximately 60%
- CA1 neurons still intact ([4]; ADAC at 1 hour postischemia): 88±4%
- Ki [5]: 210 nM
- open field activity (horizontal displacement) [6]: 135±6 cm
